From ChEMBL document CHEMBL4184125, “SIRT1 activator isolated from artificial gastric juice incubate of total saponins in stems and leaves of Panax ginseng” (Bioorg Med Chem Lett, 2018) come the findings set out here.

The target in test [1] is T1, NAD-dependent protein deacetylase sirtuin-1 (Homo sapiens) (UniProt Q96EB6).
T1 sequence (whole entry): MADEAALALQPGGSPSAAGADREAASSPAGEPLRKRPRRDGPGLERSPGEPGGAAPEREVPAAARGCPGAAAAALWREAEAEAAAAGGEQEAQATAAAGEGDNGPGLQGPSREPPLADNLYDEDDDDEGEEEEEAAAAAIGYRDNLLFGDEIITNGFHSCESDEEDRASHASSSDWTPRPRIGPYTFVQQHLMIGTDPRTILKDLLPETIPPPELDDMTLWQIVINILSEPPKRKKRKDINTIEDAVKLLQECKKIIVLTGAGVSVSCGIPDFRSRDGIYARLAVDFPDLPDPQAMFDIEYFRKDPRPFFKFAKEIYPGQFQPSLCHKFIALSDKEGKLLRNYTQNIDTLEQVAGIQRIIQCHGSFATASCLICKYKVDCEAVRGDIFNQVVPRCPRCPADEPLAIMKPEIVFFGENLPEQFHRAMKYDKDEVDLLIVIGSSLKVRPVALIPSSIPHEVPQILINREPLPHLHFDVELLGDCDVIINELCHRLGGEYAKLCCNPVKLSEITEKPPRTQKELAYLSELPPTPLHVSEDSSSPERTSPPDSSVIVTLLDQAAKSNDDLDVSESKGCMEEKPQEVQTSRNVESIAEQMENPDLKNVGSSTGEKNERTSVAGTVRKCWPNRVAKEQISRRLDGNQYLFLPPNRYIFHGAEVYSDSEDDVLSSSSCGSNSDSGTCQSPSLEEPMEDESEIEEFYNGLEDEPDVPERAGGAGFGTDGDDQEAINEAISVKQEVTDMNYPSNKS
Briefly: Inhibition of SIRT1 (unknown origin) assessed as reduction in Fluor de Lys deacetylation at 10 to 20 uM incubated for 5 mins followed by substrate addition measured after 45 mins in presence of NAD/NADH by fluorescence assay.

Test [2] has as its target T1, NAD-dependent protein deacetylase sirtuin-1 (Homo sapiens). Put plainly: Activation of SIRT1 (unknown origin) assessed as Fluor de Lys deacetylation at 10 to 20 uM incubated for 5 mins followed by substrate addition measured after 45 mins in presence of NAD/NADH by fluorescence assay.

Active and inactive are the calls of the source. The rule behind the calls is not given here.

Regarding `CC(C)=CCC[C@](C)(O)[C@H]1CC[C@]2(C)[C@@H]1[C@H](O)C[C@@H]1[C@@]3(C)CC[C@H](O)C(C)(C)[C@@H]3[C@@H](O[C@@H]3O[C@H](CO)[C@@H](O)[C@H](O)[C@H]3O[C@@H]3O[C@@H](C)[C@H](O)[C@@H](O)[C@H]3O)C[C@]12C`, the inhibition entry in test [1] is “inactive”. Consider `C/C(=C/CCC(C)(C)O)[C@H]1CC[C@]2(C)[C@@H]1[C@H](O)C[C@@H]1[C@@]3(C)CC[C@H](O)C(C)(C)[C@@H]3[C@@H](O)C[C@]12C`, for which the inhibition entry in test [1] is “inactive”. `CC(C)=CCC[C@](C)(O[C@@H]1O[C@H](CO)[C@@H](O)[C@H](O)[C@H]1O)[C@H]1CC[C@]2(C)[C@@H]1[C@H](O)C[C@@H]1[C@@]3(C)CC[C@H](O)C(C)(C)[C@@H]3[C@@H](O)C[C@]12C`: the inhibition result in test [1] was “inactive”. Besides, the outcome in test [2] was Active. On the same counts, the results for `CC(C)=CCC[C@](C)(O)[C@H]1CC[C@]2(C)[C@@H]1[C@H](O)C[C@@H]1[C@@]3(C)CC[C@H](O[C@@H]4O[C@H](CO)[C@@H](O)[C@H](O)[C@H]4O)C(C)(C)[C@@H]3[C@@H](O)C[C@]12C` are “inactive” and “Active”.

On to `C/C(=C\CCC(C)(C)O)[C@H]1CC[C@]2(C)[C@@H]1[C@H](O)C[C@@H]1[C@@]3(C)CC[C@H](O)C(C)(C)[C@@H]3[C@@H](O)C[C@]12C`, for which the inhibition entry in test [1] was “inactive”.

Consider `CCOC(C)(C)CC/C=C(\C)[C@H]1CC[C@]2(C)[C@@H]1[C@H](O)C[C@@H]1[C@@]3(C)CC[C@H](O)C(C)(C)[C@@H]3[C@@H](O)C[C@]12C`, for which the inhibition entry in test [1] is “inactive”. Take `CC(C)=CCC[C@@](C)(O)[C@H]1CC[C@]2(C)[C@@H]1[C@H](O)C[C@@H]1[C@@]3(C)CC[C@H](O[C@@H]4O[C@H](CO)[C@@H](O)[C@H](O)[C@H]4O[C@@H]4O[C@H](CO)[C@@H](O)[C@H](O)[C@H]4O)C(C)(C)[C@@H]3CC[C@]12C`: the inhibition result in test [1] was “inactive”. The result in test [2] was Active. For `C=C(CCC=C(C)C)[C@H]1CC[C@]2(C)[C@@H]1[C@H](O)C[C@@H]1[C@@]3(C)CC[C@H](O)C(C)(C)[C@@H]3[C@@H](O[C@@H]3O[C@H](CO)[C@@H](O)[C@H](O)[C@H]3O)C[C@]12C` the same measures were “inactive” and “Active”. As for `NC(=O)c1cccnc1`, the inhibition result in test [1] is “inactive”. Consider `CC(C)(O)CCC[C@@](C)(O)[C@H]1CC[C@]2(C)[C@@H]1[C@H](O)C[C@@H]1[C@@]3(C)CC[C@H](O)C(C)(C)[C@@H]3[C@@H](O)C[C@]12C`, for which the inhibition result in test [1] is “inactive”. In test [2], the result was inactive. With `CC(C)=CC/C=C(\C)[C@H]1CC[C@]2(C)[C@@H]1[C@H](O)C[C@@H]1[C@@]3(C)CC[C@H](O)C(C)(C)[C@@H]3[C@@H](O[C@@H]3O[C@H](CO)[C@@H](O)[C@H](O)[C@H]3O)C[C@]12C`, the inhibition entry in test [1] is “inactive”. The result in test [2] was Active. `CC(C)=CCC[C@](C)(O)[C@H]1CC[C@]2(C)[C@@H]1[C@H](O)C[C@@H]1[C@@]3(C)CC[C@H](O[C@@H]4O[C@H](CO)[C@@H](O)[C@H](O)[C@H]4O)C(C)(C)[C@@H]3CC[C@]12C`: the inhibition result in test [1] was “inactive”. In addition, the result in test [2] was Active. For `CC(C)=CCC[C@](C)(O)[C@H]1CC[C@]2(C)[C@@H]1[C@H](O)C[C@@H]1[C@@]3(C)CC[C@H](O)C(C)(C)[C@@H]3CC[C@]12C`, the result in test [2] was Active.

Turning to `CC(C)=CCC[C@@](C)(O)[C@H]1CC[C@]2(C)[C@@H]1[C@H](O)C[C@@H]1[C@@]3(C)CC[C@H](O)C(C)(C)[C@@H]3[C@@H](O[C@@H]3O[C@H](CO)[C@@H](O)[C@H](O)[C@H]3O[C@@H]3O[C@@H](C)[C@H](O)[C@@H](O)[C@H]3O)C[C@]12C`, the inhibition result in test [1] was “inactive”.

In the case of `CC(C)=CCC[C@](C)(O)[C@H]1CC[C@]2(C)[C@@H]1[C@H](O)C[C@@H]1[C@@]3(C)CC[C@H](O[C@@H]4O[C@H](CO)[C@@H](O)[C@H](O)[C@H]4O[C@@H]4O[C@H](CO)[C@@H](O)[C@H](O)[C@H]4O)C(C)(C)[C@@H]3CC[C@]12C`, in test [1], the inhibition result was “inactive”. Moreover, the outcome in test [2] was Active. In the case of `C/C(=C\CCC(C)(C)O)[C@H]1CC[C@]2(C)[C@@H]1[C@H](O)C[C@@H]1[C@@]3(C)CC[C@H](O[C@@H]4O[C@H](CO)[C@@H](O)[C@H](O)[C@H]4O)C(C)(C)[C@@H]3[C@@H](O)C[C@]12C`, in test [1], the inhibition result is “inactive”. On the same count and under the same terms, then `CC(C)=CCC[C@@](C)(O)[C@H]1CC[C@]2(C)[C@@H]1[C@H](O)C[C@@H]1[C@@]3(C)CC[C@H](O[C@@H]4O[C@H](CO)[C@@H](O)[C@H](O)[C@H]4O)C(C)(C)[C@@H]3[C@@H](O)C[C@]12C`, with “inactive”. For `CC(C)(O)CCC[C@](C)(O)[C@H]1CC[C@]2(C)[C@@H]1[C@H](O)C[C@@H]1[C@@]3(C)CC[C@H](O)C(C)(C)[C@@H]3[C@@H](O)C[C@]12C`, the inhibition result in test [1] is “inactive”. Also, the outcome in test [2] was inactive.

`CC(C)=CC/C=C(\C)[C@H]1CC[C@]2(C)[C@@H]1[C@H](O)C[C@@H]1[C@@]3(C)CC[C@H](O[C@@H]4O[C@H](CO)[C@@H](O)[C@H](O)[C@H]4O[C@@H]4O[C@H](CO)[C@@H](O)[C@H](O)[C@H]4O)C(C)(C)[C@@H]3CC[C@]12C`: in test [1], the inhibition entry is “inactive”. The outcome in test [2] was Active. Take `C/C(=C/CC[C@@](C)(O)[C@H]1CC[C@]2(C)[C@@H]1[C@H](O)C[C@@H]1[C@@]3(C)CC[C@H](O)C(C)(C)[C@@H]3[C@@H](O)C[C@]12C)CO`: the inhibition entry in test [1] is “inactive”. Still for that read-out and setting: then `Oc1ccc(/C=C/c2cc(O)cc(O)c2)cc1`, with “inactive”.

In the case of `C=C(CCC=C(C)C)[C@H]1CC[C@]2(C)[C@@H]1[C@H](O)C[C@@H]1[C@@]3(C)CC[C@H](O)C(C)(C)[C@@H]3[C@@H](O[C@@H]3O[C@H](CO)[C@@H](O)[C@H](O)[C@H]3O[C@@H]3O[C@@H](C)[C@H](O)[C@@H](O)[C@H]3O)C[C@]12C`, the inhibition entry in test [1] was “inactive”. The same measure, in the same setting: with `CC(C)=CCC[C@@](C)(O)[C@H]1CC[C@]2(C)[C@@H]1[C@H](O)C[C@@H]1[C@@]3(C)CC[C@H](O[C@@H]4O[C@H](CO)[C@@H](O)[C@H](O)[C@H]4O)C(C)(C)[C@@H]3CC[C@]12C` the entry was “inactive”.
